Measurements reported in US6784201B2, “Benzothiepines having activity as inhibitors of ileal bile acid transport and taurocholate uptake” (G.D. Searle & Company, priority 1994, dated 2004).
Structures can show the parent of a compound that is named as a salt. Where two headings read alike, the source gives them in different places.

How the values were obtained:
human IBAT = target: T1, human IBAT (Homo sapiens, UniProt Q12908); test: In vitro assay of IBAT-mediated uptake of [14C]-taurocholate (TC) in H14 cells; assay type: cell-based; conditions: for IC50: read-out: Human TC IC50
T1 construct: expressed in transfected cells; host or cells: Baby hamster kidney (BHK) cells, clone H14
T1 sequence (Q12908 1-348): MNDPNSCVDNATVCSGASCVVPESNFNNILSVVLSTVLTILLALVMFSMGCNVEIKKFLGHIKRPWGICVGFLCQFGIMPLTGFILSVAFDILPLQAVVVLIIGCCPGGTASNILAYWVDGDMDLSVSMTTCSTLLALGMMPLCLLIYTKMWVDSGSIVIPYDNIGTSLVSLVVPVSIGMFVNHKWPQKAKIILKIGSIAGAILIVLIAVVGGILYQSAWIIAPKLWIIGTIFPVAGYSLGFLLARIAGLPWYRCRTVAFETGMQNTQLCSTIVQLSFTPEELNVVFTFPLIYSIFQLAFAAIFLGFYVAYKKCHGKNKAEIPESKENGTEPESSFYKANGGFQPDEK
In short: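 BHK cells stably expressing human IBAT (H14) were incubated 2 h at 37° C with compound and 3 μM final [14C]-taurocholate in DMEM (4.5 g/L glucose) plus 0.2% fatty acid-free BSA. After cold PBS washes, cell-associated radioactivity was measured by scintillation counting.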

fecal bile acid (FBA) = test: Rat gavage assay (fecal bile acid increase); assay type: in vivo
Experimental: Male Wister rats (275-300 g) are administered IBAT inhibitors using an oral gavage procedure. Drug or vehicle (0.2% Tween 80 in water) is administered once a day (9:00-10:0 a.m.) for 4 days at varying dosages in a final volume of 2 mL per kilogram of body weight. Total fecal samples are collected during the final 48 hours of the treatment period and analyzed for bile acid content using an enzymatic assay as described below. Compound efficacy is determined by comparison of the increase in fecal bile acid (FBA) concentration in treated rats to the mean FBA concentration of rats in the vehicle group.
Measurement of Fecal Bile Acid Concentration (FBA)
Total fecal output from individually housed hamsters was collected for 24 or 48 hours, dried under a stream of nitrogen, pulverized and weighed. Approximately 0.1 gram was weighed out and extracted into an organic solvent (butanol/water). Following separation and drying, the residue was dissolved in methanol and the amount of bile acid present was measured enzymatically using the 3α-hydroxysteroid steroid dehydrogenase reaction with bile acids to reduce NAD. (Reference: Mashige, F., et al. (1981) Clin. Chem. 27, 1352).

[1] = In Vitro Taurocholate Uptake, Table 10

IC50 (human IBAT)	Compound	also measured
	CCCCC1(CCCC)CS(=O)(=O)c2ccc(N(C)C)cc2[C@@H](c2ccc(OCc3ccc(C[n+]4ccccc4)cc3)cc2)[C@H]1O.[Cl-] [Example 1425, (4R-cis)-1-[[4-[[4-[3,3-Dibutyl-7-(dimethylamino)-2,3,4,5-tetrahydro-4-hydroxy-1,1-dioxido-1-benzothiepin-5-yl]phenoxy]methyl]phenyl]methyl]-pyridinium chloride]	IC50 (human IBAT; [1]): 2 nM; Delta (micromoles fecal bile acid per day) (fecal bile acid (FBA); dose 5 mg/kg/day): 91.8 micromoles fecal bile acid per day; Delta (micromoles fecal bile acid per day) (fecal bile acid (FBA); dose .04 mg/kg/day): 66.4 micromoles fecal bile acid per day; Delta (micromoles fecal bile acid per day) (fecal bile acid (FBA); dose .2 mg/kg/day): 100. micromoles fecal bile acid per day
	CCCCC1(CCCC)CS(=O)(=O)c2ccc(N(C)C)cc2[C@@H](c2ccc(OCCC[N+]34CCN(CC3)CC4)cc2)[C@H]1O [Example 1406, (4R-cis)-1-[3-[4-[3,3-Dibutyl-7-(dimethylamino)-2,3,4,5-tetrahydro-4-hydroxy-1,1-dioxido-1-benzothiepin-5-yl]phenoxy]propyl]-4-aza-1-azoniabicyclo[2.2.2]octane, Methanesulfonate (Salt)]	IC50 (human IBAT; [1]): 4 nM; Delta (micromoles fecal bile acid per day) (fecal bile acid (FBA); dose 2 mg/kg/day): 47.8 micromoles fecal bile acid per day; Delta (micromoles fecal bile acid per day) (fecal bile acid (FBA); dose .016 mg/kg/day): −8.5 micromoles fecal bile acid per day; Delta (micromoles fecal bile acid per day) (fecal bile acid (FBA); dose .08 mg/kg/day): 12.8 micromoles fecal bile acid per day; Delta (micromoles fecal bile acid per day) (fecal bile acid (FBA); dose .4 mg/kg/day): 31.6 micromoles fecal bile acid per day
35 nM	CCCCC1(CCCC)CS(=O)(=O)c2ccc(N(C)C)cc2C(c2ccc(OCCOCCBr)c(F)c2)C1O (centres unmarked) [Example 1239]	
	C1=C(c2ccccc2)c2ccccc2SCC12CCCCC2 [Example 57, 5-Phenyl-2,3-dihydrospirobenzothiepine-3,1′-cyclohexane]	inhibition at 50 µM (human IBAT; 50 μM): 51%
180 nM	CCCCC1(CC)CS(=O)(=O)c2ccc(OC)cc2C(c2ccccc2F)C1O (centres unmarked) [Example 280]	
3 nM	CCCCC1(CCCC)CS(=O)(=O)c2ccc(N(C)C)cc2C(c2ccc(OCCOCCOCC[N+]3(C)CCCN(C)CCN(C)CCCN(C)CC3)cc2)C1O (centres unmarked) [Example 1055]	
68 nM	CCCCC1(CCCC)CS(=O)(=O)c2ccc(N(C)C)cc2C(c2ccc(OCCC[N+](CCCC)(CCCC)CCCC)c(F)c2)C1O (centres unmarked) [Example 1286]	
4000 nM	CCCCC1(CCCC)CS(=O)(=O)c2ccc(N(C)C)cc2C(c2ccc(OCCOCCOCCOc3ccc(C4c5cc(N(C)C)ccc5S(=O)(=O)CC(CCCC)(CCCC)C4O)cc3)cc2)C1O (centres unmarked) [Example 1199]	
4.5 nM	CCCCC1(CCCC)CS(=O)(=O)c2ccc(N(C)C)cc2C(c2ccc(OCCOCCOCC[N+](C)(C)C)cc2)C1O (centres unmarked) [Example 1076]	
5 nM	CCCCC1(CCCC)CS(=O)(=O)c2ccc(N(C)C)cc2C(c2cccc(OCCOCCOCC[N+](CC)(CC)CC(C)=O)c2)C1O (centres unmarked) [Example 1081]	
10200 nM	CCCCC1(CCCC)CS(=O)(=O)c2ccc(N(C)C)cc2C(c2ccc(C[N+](C)(C)CCO)cc2)C1O (centres unmarked) [Example 1249]	
3 nM	CCCCC1(CCCC)CS(=O)(=O)c2ccc(N(C)C)cc2C(c2cccc(OCCOCCOCC[n+]3cc4ccccc4cc3C)c2)C1O (centres unmarked) [Example 1052]	
2 nM	C=C(C)C(=O)OCC[N+](CC)(CC)CCOCCOCCOc1cccc(C2c3cc(N(C)C)ccc3S(=O)(=O)CC(CCCC)(CCCC)C2O)c1 (centres unmarked) [Example 1023]	
6 nM	CCCCC1(CCCC)CS(=O)(=O)c2ccc(N(C)C)cc2C(c2cccc(OCCOCCOCC[n+]3ccc(C)cc3)c2)C1O (centres unmarked) [Example 1096]	
20 nM	CCCCC1(CC)CS(=O)(=O)c2ccc(N(C)C)cc2C(c2ccc(OC)cc2)C1O (centres unmarked) [Example 1131]	
100 nM	CCCC[C@]1(CC)CS(=O)(=O)c2ccc(N)cc2[C@@H](c2ccc(O)cc2)[C@H]1O [Example 113]	
11 nM	CCCCC1(CCCC)CS(=O)(=O)c2ccc(N(C)C)cc2C(c2cccc(OCCOCCOCC[N+](C)(C)CCN(CC)S(=O)(=O)c3ccccc3)c2)C1O (centres unmarked) [Example 1271]	

IC50 (human IBAT)	Compound	also measured
	CCCC[C@]1(CC)CSc2ccccc2[C@H](c2ccccc2)C1=O (relative stereo) [Example 4a, cis-3-Butyl-3-ethyl-5-phenyl-2,3-dihydrobenzothiepin-(5H)4-one]	inhibition at 100 µM (human IBAT; 100 uM, read-out: In vitro % Inhibition of TC Uptake @ 100 uM): 3%
300 nM	CCCCC1(CCCC)CS(=O)(=O)c2ccc(N(C)C)cc2C(c2ccc(OC)c(C[N+](C)(C)C)c2)C1O (centres unmarked) [Example 1253]	
3.6 nM	CCCCC1(CC)CS(=O)(=O)c2ccc(NC)cc2C(c2ccc(OC)c(F)c2)C1O (centres unmarked) [Example 1060]	
22 nM	CCCCC1(CCCC)CS(=O)(=O)c2ccc(N(C)C)cc2C(c2ccc(F)c(F)c2)C1O (centres unmarked) [Example 1139]	
140 nM	CCCCC1(CCCC)CS(=O)(=O)c2ccc(OC)cc2C(c2ccncc2)C1O (centres unmarked) [Example 1172]	
350 nM	CCCCC1(CCCC)CS(=O)(=O)c2ccc([N+](C)(C)C)cc2C(c2ccc(F)c(F)c2)C1O (centres unmarked) [Example 1189]	
	cis-4-Hydroxy-5-phenyl-2,3,4,5-tetrahydro spiro(benzothiepine-3,1′-cyclohexane)-1,1-dioxide [Example 60]	In vitro % Inhibition of TC Uptake (human IBAT; 50 μM): 41%
	8b-Phenyl-1a,2,3,8b-tetrahydrospiro(benzothiepino[4,5-b]oxirene-2,1′-cyclohexane)-4,4-dioxide [Example 58]	In vitro % Inhibition of TC Uptake (human IBAT; 50 μM): 88%
4 nM	CCCCC1(CCCC)CS(=O)(=O)c2ccc(NC)cc2C(c2cccc(OCCOCCOCC[n+]3ccccc3CCN3CCCCC3)c2)C1O (centres unmarked) [Example 1064]	
2 nM	CCCCC1(CCCC)CS(=O)(=O)c2ccc(N(C)C)cc2C(c2cccc(OCCOCCOCC[N+](C)(C)CCN(C)P(C)(=O)c3ccccc3)c2)C1O (centres unmarked) [Example 1024]	
13 nM	CCCCC1(CCCC)CS(=O)(=O)c2ccc(N(C)C)cc2C(c2cccc(OCCOCCOCC[n+]3ccc(CCC)cc3)c2)C1O (centres unmarked) [Example 1127]	
2 nM	CCCCC1(CCCC)CS(=O)(=O)c2ccc(N(C)C)cc2C(c2cccc(OCCOCCOCC[N+](C)(C)CCN(CC)P(C)(=O)c3ccccc3)c2)C1O (centres unmarked) [Example 1035]	
68 nM	CCCCC1(CCCC)CS(=O)(=O)c2ccc(N(C)C)cc2C(c2cc(Cl)cc(Cl)c2)C1O (centres unmarked) [Example 1207]	
20 nM	CCCCC1(CCCC)CS(=O)(=O)c2ccc(N(C)C)cc2C(c2ccc(CC#N)cc2)C1O (centres unmarked) [Example 1133]	
700 nM	CCCCC1(CC)CS(=O)(=O)c2ccc(Br)cc2C(c2cccc(OC)c2)C1O (single isomer, unassigned) [Example 272]	
4 nM	CCCCC1(CCCC)CS(=O)(=O)c2ccc(N(C)C)cc2C(c2cccc(OCCOCCOCC[n+]3ccccc3)c2)C1O (centres unmarked) [Example 1068]	

Compound	IC50 (human IBAT)	also measured
CCCC[C@]1(CC)CS(=O)(=O)c2ccc([N+](C)(C)C)cc2[C@@H](c2ccccc2)[C@H]1O [Example 102]	83 nM	
